The values below come from patent US20040023924A1, “Use of xyloglucan polymers and oligomers, and derivative compounds, as phytosanitary products and biofertilizers” (priority 2000, published 2004).

What all share (assay type): cell-based, Acer pseudoplatanus L.
Test [1] deals with Phospholipase D (E.C: 3.1.4.4). Nature of the test: Elicitation of phospholipase D activity (NBD-PE fluorescence). Conditions: for Optimal Plase D response (100% = non-elicited cells): at the optimal concentration. The source says:
Vegetable material: Acer pseudoplatanus L. cells in Suspension
Phospholipase D (E.C: 3.1.4.4) (Plase D) activity: this is a phosphatidylcholine phosphatidohydrolase which releases the O-R3 group, according to the diagram below. To the extent that O-R3 is marked (a fluorochrome for example), quantifying this group is equivalent to assaying Plase D activity. For the experiments the substrate used is phosphatidylcholine conjugated to a fluorochrome, i.e. the product nitrobenzoxadiazole phosphoethanolamine (NBD-PE). The retained excitation and emission wavelengths of the fluorochrome are 460 nm and 534 nm respectively. [drawing 5]
Principle: assaying Plase D activity is equivalent to estimating the fluorescence variation at 534 nm of a reaction medium with a spectrofluorimeter (Perkin Elmer).
Test: the reaction medium in a microtitration plate well is as follows: 1.3 10^7 Acer pseudoplatanus L. cells are incubated in a 50 mM HEPES buffer, pH 6.8 enriched with CaCl2 (1 μM), ATP (2 μM), octyl-D-glucoside 50 μM, GTP (6 μM) in the presence of the NBD-PE substrate (4 μM), in the presence or absence of an elicitor (0-100 nM): 2′-fucosyl-lactose (FL), compound A; XXFGol, compound B, in the presence or not in the presence of a methyl jasmonate effector (0-5 nM). The Plase D activity assay is carried out by measuring the fluorescence at 534 nm.
Evaluation of the experimental data. For each sample at least three kinetics are recorded; the Plase D activity is given by the slope of the regression curve. The results are expressed by Δ F534 min^−1. One point on the graph corresponds to the linear regression treatment of at least 2 kinetic curves originating from 2 different samples.
The Plase D elicitation response is evaluated according to the fluorescence variation at […]; the 100% reference value corresponds to the fluorescence in the controls (non-elicited cells)

The subject of test [2] is endochitinase (EC 3.2.1.14). Nature of the test: Induction of an endochitinase response in elicited cells. Conditions: 50 nM elicitor; for Endochitinase response: 42 hours; for Endochitinase early response R: after approximately 25 minutes. As to the method:
(§1) Vegetable material: Acer pseudoplatanus L Cells in Suspension
(§2) Test: 2.10^6 Acer pseudoplatanus L. cells were elicited under circular stirring (80 rpm), in 25 ml of culture medium (without 2,4-D) by 50 nM of 2′-fucosyl lactose (compound A) or 50 nM of methyl α-L-Fuc (1→2) β-D-Gal (1→2) β-D-Xyl trisaccharide (compound B)(synthesized according to Lopez et al., 1994) or for a variable time (0 to 42 hours) in the presence or not in the presence of an effector: cycloheximide (1 μM), okadaic acid (5 nM), staurosporine (500 nM), or boroglycine (500 nM). The elicitation experiment is stopped by putting the cells in ice. The cells recovered after decantation and taken up in approximately 1 ml of elicitation buffer are the subject of a specific protein extraction.
(§3) D-glycosylhydrolase extraction. The enzyme extracts are prepared from elicited or non-elicited cells. The cells are homogenized at 0° C. in Tris-HCl buffer (50 mM pH 7.2) containing 1 M of NaCl with a Vibracell™ Bioblock sonicator, maximum power, for 3 times 1 minute. The homogenates are centrifuged at 4° C. (12000 g, 15 minutes) then dialysed and concentrated on Ultrafree™ Millipore ultrafiltration units (cut-off threshold 10 kDa). The retentates, taken up in distilled water, are crude extracts.
Endochitinase activity assay. This is based on the released reducing sugar assay according to Somogyi (1952). The reaction medium contains the enzyme extract (1 μg of proteins), the substrate (25 μg of chitin) in 100 μl of sodium acetate buffer (0.1 M), pH 5.0; the enzymatic reaction at 40° C. develops over a variable time (1 to 5 hours).
(§4) Evaluation of the experimental data. At least 2 kinetics were carried out per sample, and per set of experiments. The reaction rate (ΔA410 minutes^−1 for example) is obtained by linear regression from 4 kinetic curves. The results are expressed by the ratio R (enzymatic activity in elicited cells/enzymatic activity in non-elicited control cells).

Test [3] deals with 1,3 β-D-glucanase (EC 3.2.1.39). Nature of the test: Induction of a 1,3 β-D-glucanase response in elicited cells. The following applies: 50 nM elicitor; for 1,3 β-D-glucanase response R: 42 hours; for 1,3 β-D-glucanase early response R: after 20 minutes. As to the method:
as §1, §2, §3
1,3 β-D-glucanase activity assay. This is based on colorimetric assay (ferricyanide test of Kidby and Davidson (1973) of the substrate reducing units (laminarin or laminarin hexamer) released during the hydrolysis. The reaction medium contains the enzyme extract (1 μg of proteins), the substrate (5 μM of reduced laminarin hexamer) in 100 μl of sodium acetate buffer (0.1 M), pH 5.0); the enzymatic reaction at 40° C. develops over a variable time (1 to 3 hours).
as §4

The subject of a further test is papain (EC 3.4.22.2). Put plainly: Induction of a thiol-protease (papain) inhibitor in elicited cells. Conditions: 50 nM elicitor; for Papain inhibitor potential, early reaction: after 30 minutes; for Papain inhibitor potential, late reaction: after 42 hours. As to the method: Vegetable Material: Acer pseudoplatanus L. Cells in Suspension
Test: 2.10^6 cells of Acer pseudoplatanus L. were elicited by 50 nM of 2′-fucosyl lactose (compound A) or by 50 nM of methyl α-L-Fuc (1→2)β-D-Gal (1→2)β-D-Xyl trisaccharide (compound B) (synthesized according to Lopez et al., 1994) for 30 minutes or for 42 hours. Inhibitors of protease (IP) were prepared according to the protocol of Walker-Simmons (1977) starting from elicited or non-elicited cells. It was verified that the viability of the cells was maintained at more than 85% for the whole duration of the experiment.
Papain activity assay: the reaction medium contains an aliquot of IP extract (equivalent to 1 or 2 μg of proteins) in sodium phosphate citrate buffer (0.1M) pH 6 enriched with cysteine-HCl (5 mM), papain (EC 3.4.22.2) (0.48 units), p-nitroanilide N-α-benzoyl-D-L-arginine (BAPNA) (0.27 mM). The activity assay is based on the absorbance measurement at 410 nm. The reaction rate is given by ΔA410 min^−1.
Evaluation of the experimental data: for a given sample, the activity of an IP inhibitor isolated from this sample is estimated by developing the protease kinetics (recording at 410 nm for IO minutes in the presence or not in the presence of a variable quantity of inhibitor). The experimental conditions adopted (incubation time, substrate, enzyme and IP extract concentrations) are those which lead to linear and reproducible kinetics. The initial reaction rate is the slope α(A410 minutes^−1) of a curve A410=f(t). For a given sample, at least three curves are plotted and the initial rate is deduced by linear regression. The protease activity modulation capacity is expressed as a % of the control activity (protease activity without IP inhibitor).
The elicitation response is evaluated according to the papain inhibition measured in the presence of a protease inhibitor prepared from cells elicited by 2′ fucosyl lactose (2A) or by methyl α-L-Fuc (12) β-D-Gal (12) β-D-Xyl trisaccharide (2B); the results are expressed as a % of the control activity (papain activity in the non-elicited cells measured without inhibitor).

On to `CO[C@@H]1OC[C@@H](O)[C@H](O)[C@H]1O[C@@H]1O[C@H](CO)[C@H](O)[C@H](O)[C@H]1O[C@@H]1O[C@@H](C)[C@@H](O)[C@@H](O)[C@@H]1O` [compound B, methyl α-L-Fuc (1→2)β-D-Gal (1→2)β-D-Xyl], for which, in test [1], the “Elicitor concentration of optimal Plase D response” value is given as 1.7 nM and the “Optimal Plase D response (100% = non-elicited cells)” value came to 230%. For the same compound, in test [2], the Endochitinase response entry is “no enzymatic activation was detected” and the “Endochitinase early response R” value is around 6. In addition, in test [3], the “1,3 β-D-glucanase response R” value was around 12 and the “1,3 β-D-glucanase early response R” value is listed as around 3. For the same compound, in the test on papain (EC 3.4.22.2), the “Papain inhibitor potential, early reaction” value is recorded as “same papain inhibitor potential” and the “Papain inhibitor potential, late reaction” value is recorded as “lower intensity”.
With `C[C@@H]1O[C@@H](O[C@H]2[C@H](O[C@H]3[C@H](O)[C@@H](O)[C@H](O)O[C@@H]3CO)O[C@H](CO)[C@H](O)[C@@H]2O)[C@@H](O)[C@H](O)[C@@H]1O` [compound A, α-L-Fuc(1→2)β-D-Gal(1→4)β-D-Glc], in test [1], the “Elicitor concentration of optimal Plase D response” value came to 1 nM and the “Optimal Plase D response (100% = non-elicited cells)” value came out at 244%. In test [1] (methyl jasmonate 0 to 5 nM, 2′-fucosyl lactose 1 nM, dose-dependent), the “Plase D elicitation: methyl jasmonate versus 2′-fucosyl lactose” value is recorded as “antagonistic”. Further, in test [2], the Endochitinase response entry is listed as “no enzymatic activation was detected” and the “Endochitinase early response R” value is recorded as around 6. In test [3], the “1,3 β-D-glucanase response R” value is listed as around 12 and the “1,3 β-D-glucanase early response R” value is reported as around 3. In addition, in the test on papain (EC 3.4.22.2), the “Papain inhibitor potential, early reaction” value is listed as “same papain inhibitor potential” and the “Papain inhibitor potential, late reaction” value was “lower intensity”.
